Columns and labels:
Type in all cases: cell-based, human
[1] = tested on: Circulating Tumour Cells (CTCs) from a patient with lung cancer (adenocarcinoma); assay: Drug response score assay on CTCs (with CD45+ cells for immunotherapy) from blood, Example 5; settings: lung cancer CTCs; for Drug sensitivity as calculated by the assay (interpretation of Drug Response Scores): Table 17
Method: (§1) CD45^+ cells and circulating tumour cells (CTCs) were isolated from a blood sample provided by each subject.
(§2) CD45 separation was performed by adding human CD45 microbeads (50 μl/ml blood), incubating for 15 minutes at 4° C. and then processing using an AutoMACS machine. This separates the blood sample into CD45^+ and CD45^−cells in 2 separate falcons. The falcon tubes are then centrifuged at 1200 rpm for 5 minutes.
(§3) The supernatant was removed from the CD45^+falcon tube, and the cells resuspended in DMEM with 2 μl Cell Tox, 2 μl MT and 2 μl MT. 20 μl of the resuspended CD45^+ cells was then plated in each well which will contain an immunotherapy treatment.
(§4) The supernatant was removed from the CD45^−falcon tube, and the CD45^−cells contacted with 100 μl of FcR block and 100 μl of CD326 (EpCAM) MicroBeads, followed by incubation at […] 4° C. for 30 minutes. The CD45^−cells were then processed using an AutoMACS machine to separate the EpCAM positive and negative cells into 2 separate falcon tubes. The EpCAM-cells were discarded. The supernatant was removed from the EpCAM^+ cells, and the cells resuspended in DMEM with 2 μl Cell Tox, 2 μl MT and 2 μl MT. 20 μl of the resuspended pellet was then added to all sample wells excluding a blank. After all wells are added to, a cell count was conducted on the […] to determine the number of circulating tumour cells (CTCs).
(§5) The different cell types were each divided equally into populations, depending on the number of drugs/concentrations to be tested and plated on a cell-culture plate pre-coated with a scaffold of polycaprolactone (PCL) electrospun fibres and incubated at 37° C., 5% CO2, for 5 to (typically 10) minutes to facilitate cell attachment. After attachment, an initial imaging step was carried out using the RealTime-Glo™ MT assay from Promega (Catalogue No. G9711)) and the CellTox™ Green Cytotoxicity Assay (Promega, Catalogue No. G8741), carried out according to manufacturer's instructions. Following this initial imagining, the immunotherapeutic and/or chemotherapeutic agents were added to the cell populations as indicated below. After 10 minutes, the imagining step was repeated. The cell populations were then incubated at 37° C., 5% CO2 for 48 hours. The imaging step was then repeated. The cell populations were then re-dosed with the same immunotherapeutic and/or chemotherapeutic agents as indicated below, and incubated at 37° C., 5% CO2 for a further 48 hours. After this second 48 hour incubation, the imagining step was repeated for a final time.
(§6) At the end of this culture period, dose response scores were calculated using a normalized drug response metric as described in Gupta et al. (Communications Biology volume 3, Article number: 42 (2020), https://doi.org/10.1038/s42003-020-0765-z). The start readout for a given immunotherapeutic or chemotherapeutic agent at a given concentration was the to readout for said immunotherapeutic or chemotherapeutic agent at a specified concentration. The end readout for a given immunotherapeutic or chemotherapeutic agent at a given concentration was the final timepoint reading (t96h) for said immunotherapeutic or chemotherapeutic agent at a specified concentration.
(§7) The positive control start readout for a given drug/concentration was the to readout for the corresponding drug at a specified concentration. The positive control end readout for the corresponding drug at a specified concentration was the final timepoint reading (t96h) for the corresponding blank well.
(§8) The negative control start and end readouts for a given immunotherapeutic or chemotherapeutic agent at a given concentration were the to and final timepoint reading (t96h) respectively for blank cell or blank immuno cell well respectively.
(§9) The sensitivity or resistance of a subject's cancer to a given immunotherapeutic or chemotherapeutic agent was determined based on the calculated drug response score as shown in Table 2. […]

[2] = tested on: cancer cells derived from the tissue sample of a patient with osteosarcoma; assay: Drug response score assay on tissue sample, Example 10; design: key to Drug response score, conc. 1 / Drug response score, conc. 2 / Drug response score, conc. 3 / Drug response score, conc. 4: normalized drug response metric per Gupta et al. 2020; settings: for Drug response score, conc. 1 / Drug response score, conc. 2 / Drug response score, conc. 3 / Drug response score, conc. 4: tissue sample; for Drug response score, conc. 1: conc. 1 per Table 31: Etop 1, DTIC 1.5, Ifos 0.125, Doce 0.02, Irinotecan 5 μg/ml; for Drug response score, conc. 2: conc. 2 per Table 31: Etop 4, DTIC 3, Ifos 0.25, Doce 0.2, Irinotecan 10 μg/ml; for Drug response score, conc. 3: conc. 3 per Table 31: Etop 20, DTIC 6, Ifos 5, Doce 2, Irinotecan 25 μg/ml; for Drug response score, conc. 4: conc. 4 per Table 31: Etop 100, DTIC 12, Ifos 10, Doce 10, Irinotecan 50 μg/ml
Method: (§10) Where a tissue sample was provided by each subject, cancer stem cells (CSCs, CD133^+), were isolated from said sample. Tumour marker cells were further isolated from each tissue sample. The remaining cells were designated tumour marker^+ cells.
(§11) First, disaggregation of the tissue samples was carried out. Disaggregation was dependent on the size of the tissue sample and the method of retrieval: • EBUS (Endobronchial Ultrasound Scan and Biopsy)—very small fragments of tissue in solution-spun at 1200 rpm for 5 minutes to collect tissue pellet • Bronchoscopy-larger fragments with larger amount of blood vessels • Broncho-lavage-similar to EBUS, spun at 1200 rpm for 5 minutes to collet tissue pellet
(§12) Once a pellet of tissue obtained, DMEM added to the tissue pellet and the material forced through a […] Smart strainer. Once a cell suspension was achieved, this was spun at 1200 rpm for 5 minutes and the supernatant removed. The cells were then resuspended to a volume of 60 μl.
(§13) 20 μl of FcR block and 20 μl of CD133 microbeads were added to the resuspended cells, followed by incubation for 15 minutes at 4° C. The cells were then processed using an AutoMACS machine. This separates the […] into CD133^+ and CD133^− cells in 2 separate falcons. The falcon tubes are then centrifuged at 1200 rpm for 5 minutes.
(§14) The supernatant was removed from the CD133+falcon tube, and the cells resuspended in DMEM with 2 μl Cell Tox, 2 μl MT and 2 μl MT. 20 μl of the resuspended […] was then plated in each well which will contain an immunotherapy treatment.
(§15) The supernatant was removed from the CD133^− falcon tube, and the CD133^− cells contacted with 40 μl of a tumour separation microbeads cocktail containing microbeads bound to anti-CD31, anti-CD45, anti-Glycophorin-A (Gly-A) and an anti-fibroblast antibody.
(§16) This cocktail is used to separate out tumour marker cells using MACS, by separating out CD31^+, CD45^+ and Gly-A^+ cells. In addition, anti-fibroblast antibody-labelled beads are also used. The cocktail is added to the CD133^− falcon tube, followed by incubation for 15 minutes at 4° C. MACS is carried out using an AutoMACS machine. This cells which are not bound by the CD31, CD45, Gly-A and anti-fibroblast antibody beads are the tumour marker^+ cells.
as §5
as §6, with “The end readout for a given immunotherapeutic or chemotherapeutic agent at a given concentration was the final timepoint reading (t96h) for said immunotherapeutic or chemotherapeutic agent at a specified concentration.” left out

[3] = tested on: Circulating tumour cells (CTCs) from a patient with GI cancer (Cholangio Carcinoma, stage 4); assay: Drug response score assay on blood sample, Example 9
Method: as §1, §2, §3, §4, §5, §6, §7, §8, §9

[4] = tested on: Cancer Cells from tissue sample (CSCs, tumour marker+ cells) of a patient with GI cancer (Cholangio Carcinoma, stage 4); assay: Drug response score assay on tissue sample, Example 9
Method: as §10, §11, §12, §13, §14, §15, §16, §5
as §6, with “The end readout for a given immunotherapeutic or chemotherapeutic agent at a given concentration was the final timepoint reading (t96h) for said immunotherapeutic or chemotherapeutic agent at a specified concentration.” left out

[5] = tested on: Circulating Tumour Cells (CTCs) from a patient with rectal cancer (anorectal carcinoma with secondary lung cancer); assay: Drug response score assay on CTCs (with CD45+ cells for immunotherapy) from blood, Example 3
Method: as §1, §2, §3, §4, §5, §6, §7, §8, §9

Compound: C[C@@H](Oc1cc(-c2cnn(C3CCNCC3)c2)cnc1N)c1c(Cl)ccc(F)c1Cl [Crizotinib]
- effectiveness on Circulating Tumour Cells (CTCs) under laboratory conditions [1]: marginally more effective than other agents
- Drug sensitivity as calculated by the assay (interpretation of Drug Response Scores) [1]: S++

Compound: CCc1c2c(nc3ccc(OC(=O)N4CCC(N5CCCCC5)CC4)cc13)-c1cc3c(c(=O)n1C2)COC(=O)[C@]3(O)CC [Irinotecan]
- effectiveness on the cancer cells derived from the tissue sample under laboratory conditions ([2]; osteosarcoma tissue sample): show effectiveness
- Drug sensitivity as calculated by the assay (interpretation of Drug Response Scores) ([2]; osteosarcoma tissue sample, Table 33): Sensitive (S++)
- effectiveness on Circulating Tumour Cells under laboratory conditions ([3]; GI cancer (Cholangio Carcinoma) blood sample): S+
- Drug response score from blood sample, conc. 1 ([3]; conc. 1 of each drug as in Table 27, blood sample, t96h): 0.1974
- Drug response score from blood sample, conc. 2 ([3]; conc. 2 of each drug as in Table 27, blood sample, t96h): 0.3469
- Drug response score from blood sample, conc. 3 ([3]; conc. 3 of each drug as in Table 27, blood sample, t96h): 0.6197
- Drug response score from blood sample, conc. 4 ([3]; conc. 4 of each drug as in Table 27, blood sample, t96h): 0.5913
- Drug sensitivity as calculated by the assay, Blood ([3]; interpretation based on Drug Response Scores, blood sample): S+
- effectiveness on Cancer Cells from tissue sample under laboratory conditions ([4]; GI cancer (Cholangio Carcinoma) tissue sample): S+
- Drug sensitivity as calculated by the assay, Tissue ([4]; interpretation based on Drug Response Scores, tissue sample): S+
- Drug response score, conc. 1 ([4]; tissue sample, conc. 1 per Table 27B: Pem 20, Niv 20, Atez 100, Pacli 0.05, Irino 5, Beva 1 μg/ml, Len 50, 5-FU 250 ng/ml): 0.887
- Drug response score, conc. 2 ([4]; tissue sample, conc. 2 per Table 27B: Pem 40, Niv 40, Atez 200, Pacli 0.1, Irino 10, Beva 2 μg/ml, Len 100, 5-FU 500 ng/ml): 0.9135
- Drug response score, conc. 3 ([4]; tissue sample, conc. 3 per Table 27B: Pem 100, Niv 80, Atez 400, Pacli 0.2, Irino 25, Beva 4 μg/ml, Len 200, 5-FU 1000 ng/ml): 0.8742
- Drug response score, conc. 4 ([4]; tissue sample, conc. 4 per Table 27B: Pem 160, Niv 160, Atez 800, Pacli 1, Irino 50, Beva 8 μg/ml, Len 400, 5-FU 2000 ng/ml): 0.8612

Compound: CCc1c2c(nc3ccc(OC(=O)N4CCC(N5CCCCC5)CC4)cc13)-c1cc3c(c(=O)n1C2)COC(=O)[C@]3(O)CC [Irina]
- Drug response score, conc. 1 [2]: −0.0303
- Drug response score, conc. 2 [2]: −0.1454
- Drug response score, conc. 3 [2]: 0.2672
- Drug response score, conc. 4 [2]: −0.0433

Compound: CN(C)/N=N/c1[nH]cnc1C(N)=O [DTIC]
- Drug response score, conc. 1 [2]: −0.7928
- Drug response score, conc. 2 [2]: 0.4035
- Drug response score, conc. 3 [2]: −0.0520
- Drug response score, conc. 4 [2]: 0.1714

Compound: COc1cc2ncnc(Nc3ccc(F)c(Cl)c3)c2cc1OCCCN1CCOCC1 [Gefitinib]
- effectiveness on Circulating Tumour Cells (CTCs) under laboratory conditions [1]: relatively less effective compared rest of the agents
- Drug sensitivity as calculated by the assay (interpretation of Drug Response Scores) [1]: S+

Compound: CNC(=O)c1cc(Oc2ccc(NC(=O)Nc3ccc(Cl)c(C(F)(F)F)c3)c(F)c2)ccn1 [Regorafinib]
- Drug response score, conc. 1 ([5]; conc. 1: Pembro 20 μg/ml, Nivo 20 μg/ml (CTCs + CD45+ cells), Lenva 50 ng/ml, Regor 60 μg/ml (CTCs), t96h): 0.9681
- Drug response score, conc. 2 ([5]; conc. 2: Pembro 40 μg/ml, Nivo 40 μg/ml (CTCs + CD45+ cells), Lenva 100 ng/ml, Regor 80 μg/ml (CTCs), t96h): 0.9212
- Drug response score, conc. 3 ([5]; conc. 3: Pembro 100 μg/ml, Nivo 80 μg/ml (CTCs + CD45+ cells), Lenva 200 ng/ml, Regor 120 μg/ml (CTCs), t96h): 0.7424
- Drug response score, conc. 4 ([5]; conc. 4: Pembro 160 μg/ml, Nivo 160 μg/ml (CTCs + CD45+ cells), Lenva 400 ng/ml, Regor 160 μg/ml (CTCs), t96h): −0.7024
- effectiveness on Circulating Tumour Cells under laboratory conditions ([5]; rectal cancer CTCs): Sensitive S+
- Drug sensitivity as calculated by the assay (interpretation of Drug Response Scores) ([5]; rectal cancer CTCs, Table 11): Sensitive (S+)

Compound: C#Cc1cccc(Nc2ncnc3cc(OCCOC)c(OCCOC)cc23)c1 [Erlotinib]
- effectiveness on Circulating Tumour Cells (CTCs) under laboratory conditions [1]: relatively less effective compared rest of the agents
- Drug sensitivity as calculated by the assay (interpretation of Drug Response Scores) [1]: S+
